In patent publication US20220257593A1, “CARABACHOL-BROMONIDINE FORMULATION TO ENHANCE ANTI-PRESBYOPIA EFFECTS” (Visus Therapeutics, Inc., priority 2019, published 2022):
Values joined by “and” are separate entries in the source; they are usually repeats but may differ in a detail not shown here. Identical values can stand only once. “Also recorded” adds a separate entry of the source. Like-named read-outs stand apart in the source and are kept apart here. Each block holds one molecule with its values, some of them ahead of it.

Assays:
[1] = tested on: emmetropic and presbyopic subjects, non-dominant eye; assay: Examples 7 and 13 crossover trial: pupil size (Colvard infrared pupilometer); type: in vivo, human; details: for PS (mean pupil size): mean ± SD, ten subjects, pre-treatment 4.3 ± 0.5
Procedure: (§1) A prospective, double-masked, randomized, controlled clinical trial was conducted.
(§2) The 3% carbachol drops included 50 ppm of benzalkonium chloride.

[2] = tested on: emmetropic and presbyopic subjects, non-dominant eye; assay: Examples 7 and 13 crossover trial: near visual acuity, combined vs separate 3% carbachol and 0.2% brimonidine, carbachol alone, brimonidine alone; type: in vivo, human; details: for NVA (mean near visual acuity): mean ± SD, ten subjects, pre-treatment 8.6 ± 1.5
Procedure: Participants were volunteers selected at random.
as §1
Participants were randomly selected volunteers.
as §2

presbyopic subjects [3] = details: subjects receiving brimonidine drops
[4] = tested on: presbyopic subjects, non-dominant eye; assay: Example 8 dose range studies of carbachol and pilocarpine with and without brimonidine: near visual acuity (LogMAR) and pupil diameter; type: in vivo, human; details: for change in LogMAR VA, pilocarpine vs carbachol, each plus 0.2% brimonidine: FIGS. 12 and 13
Procedure: Dose range studies were performed for carbachol and pilocarpine. […] Pilocarpine and carbachol were also compared to each other, with and without brimonidine.

[5] = tested on: emmetropic, myopic and hyperopic presbyopes
presbyopic subjects [6] = assay: Example 8 dose range studies: tolerability, adverse symptoms and satisfaction survey
Source text: Both Groups 1 and 2 received the same pre- and post-treatment work-up and measurements: Age, gender, initial pupil size, and near vision acuity (NVA) were documented.
The survey asked the patients whether they would use the drops again.

[7] = FDA product insert for isoptocarpine; cited from earlier work
[8] = Example 8: stability of pilocarpine at neutral pH; type: physicochemical; details: needs about pH 5

SMILES: C[N+](C)(C)CCOC(N)=O [3% carbachol alone, carbachol]
- PS (mean pupil size) ([1]; 1-h post-treatment): 2.8 ± 0.3 mm
- PS (mean pupil size) ([1]; 2-h post-treatment): 3 ± 0.3 mm
- PS (mean pupil size) ([1]; 4-h post-treatment): 3.5 ± 0.3 mm
- PS (mean pupil size) ([1]; 8-h post-treatment): 4 ± 0.3 mm
- mean pupil size (PS) ([1]; 1 h post-treatment, before treatment 4.3±0.5 mm): 2.8±0.3 mm
- mean pupil size (PS) ([1]; 2 h post-treatment): 3±0.3 mm
- mean pupil size (PS) ([1]; 4 h post-treatment): 3.5±0.3 mm
- mean pupil size (PS) ([1]; 8 h post-treatment): 4±0.3 mm
- hours in which mean pupil size reached the target pupil size of <2.5 mm ([1]; emmetropic presbyopes, FIG. 24): never achieved the target pupil size during hours 1-8
- NVA (mean near visual acuity) ([2]; 1-h post-treatment): 5.5 ± 1 J
- NVA (mean near visual acuity) ([2]; 2-h post-treatment): 5.9 ± 0.8 J
- NVA (mean near visual acuity) ([2]; 4-h post-treatment): 7 ± 1.2 J
- NVA (mean near visual acuity) ([2]; 8-h post-treatment): 7.5 ± 1 J
- mean near visual acuity (NVA) ([2]; 1 h post-treatment, before treatment J 8.6±1.5, 10 subjects crossover): 5.5 ± 1 J
- mean near visual acuity (NVA) ([2]; 2 h post-treatment): 5.9 ± 0.8 J
- mean near visual acuity (NVA) ([2]; 4 h post-treatment): 7 ± 1.2 J
- mean near visual acuity (NVA) ([2]; 8 h post-treatment): 7.5 ± 1 J
- hours in which mean near visual acuity (NVA) was ≥20/40 ([2]; emmetropic presbyopes, FIG. 25): never achieved an NVA of ≥20/40

- mild burning sensation, number of subjects (presbyopic subjects [3]): 10 subjects
SMILES: Brc1c(NC2=NCCN2)ccc2nccnc12 [Brimonidine 0.2%, brimonidine]
- PS (mean pupil size) ([1]; 1-h post-treatment): 3.95 ± 0.5 mm
- PS (mean pupil size) ([1]; 2-h post-treatment): 4.2 ± 0.4 mm
- PS (mean pupil size) ([1]; 4-h post-treatment): 4.3 ± 0.5 mm
- PS (mean pupil size) ([1]; 8-h post-treatment): 4.3 ± 0.5 mm
- effect on pupil size or NVA ([1]; 50 ppm benzalkonium chloride): virtually no effect
- difference in mean PS before treatment and at any time point after treatment ([1]; P >0.05): no statistically significant difference
- miotic effect ([1]; first hour after instillation, light luminance conditions, not significant (P >0.05)): mild miotic effect
- synergy with carbachol and pilocarpine ([4]; 0.2% brimonidine): synergistic with both carbachol and pilocarpine
- NVA (mean near visual acuity) ([2]; 1-h post-treatment): 7.7 ± 1.3 J
- NVA (mean near visual acuity) ([2]; 2-h post-treatment): 8.2 ± 1.3 J
- NVA (mean near visual acuity) ([2]; 4-h post-treatment): 8.5 ± 1.4 J
- NVA (mean near visual acuity) ([2]; 8-h post-treatment): 8.6 ± 1.5 J
- difference in mean NVA before treatment and at any time point after treatment ([2]; P >0.05): no statistically significant difference
- mean change / improvement in near visual acuity compared among combination, separate drops, carbachol alone, brimonidine alone ([2]; over eight hours): the least
- difference in mean NVA before treatment and at any time point after treatment ([5]; Group 1 emmetropic presbyopes): No statistically significant difference in mean NVA
- difference in mean NVA before treatment and at any time point after treatment ([5]; Group 2 myopic presbyopes): No statistically significant difference in mean NVA
- difference in mean NVA before treatment and at any time point after treatment ([5]; Group 3 hyperopic presbyopes): No statistically significant difference in mean NVA

SMILES: CC[C@@H]1C(=O)OC[C@@H]1Cc1cncn1C [Pilo Alone]
- Pilo Alone 1 hr nVA ([4]; Pilo 0.5%, individual patients): 3 J and 6 J and 5 J
- Pilo Alone 1 hr pupil ([4]; Pilo 0.5%, individual patients): 3.8 and 3 (2×)
- Pilo Alone 2 hrs nVA ([4]; Pilo 0.5%, individual patients): 5 J (2×) and 3 J (2×)
- Pilo Alone 2 hrs pupil ([4]; Pilo 0.5%, individual patients): 3 and 4 and 2.5 and 3.3
- Pilo Alone 4 hrs nVA ([4]; Pilo 0.5%, individual patients): 5 J (3×) and 3 J
- Pilo Alone 4 hrs pupil ([4]; Pilo 0.5%, individual patients): 3.3 and 4 and 3 and 4.2
- Pilo Alone 1 hr nVA ([4]; Pilo 1%, individual patients): 3 J (2×) and 2 J and 8 J
- Pilo Alone 1 hr pupil ([4]; Pilo 1%, individual patients): 2.5 (2×) and 1.5 and 3
- Pilo Alone 2 hrs nVA ([4]; Pilo 1%, individual patients): 3 J and 2 J (2×) and 8 J
- Pilo Alone 2 hrs pupil ([4]; Pilo 1%, individual patients): 3 (2×) and 1.5 and 2.5
- Pilo Alone 4 hrs nVA ([4]; Pilo 1%, individual patients): 5 J (2×) and 3 J and 10 J
- Pilo Alone 4 hrs pupil ([4]; Pilo 1%, individual patients): 4 (2×) and 2.5 and 3
- Pilo Alone 1 hr nVA ([4]; Pilo .05%, patient 5): 3 J
- Pilo Alone 1 hr pupil ([4]; Pilo .05%, patient 5): 2.5
- Pilo Alone 4 hrs pupil ([4]; Pilo […], individual patients): 4

SMILES: C[N+](C)(C)CCOC(N)=O [carbachol, reference compound]
- change in LogMAR VA, pilocarpine vs carbachol, each plus 0.2% brimonidine [4]: favored carbachol for hours 8 and 10
- duration of effect ([4]; in vivo): 8 h
- dose response for tolerability (presbyopic subjects [6]; carbachol […], […], 3% plus brimonidine, seven days, FIG. 15): An inverse dose response

SMILES: CC[C@@H]1C(=O)OC[C@@H]1Cc1cncn1C [pilocarpine, reference compound]
- change in LogMAR VA, pilocarpine vs carbachol, each plus 0.2% brimonidine [4]: favored pilocarpine for hours 1 and 2
- onset and duration of effect ([4]; compared with carbachol): more immediate effect; also recorded: shorter duration
- brow ache rate [7]: > 5%
- stability at neutral pH [8]: unstable at neutral pH
- burning (presbyopic subjects [6]; in vivo): burned
